One block for each substance: values may come before it. Square brackets hold non-standard residues; d marks the D form. Ends that are not written are not given here.
Experiments:
[1] = Peptide binding assay on titanium beads (streptavidin-AP detection, binding curve EC50)
Method: (§1) Relative binding strengths (affinities) of the peptides to metal, also used as a measure of binding specificity, were determined by testing serial dilutions of the peptide for binding to a target substrate comprising metal, as represented by titanium or steel. Plotting the absorbance observed across the concentration range for each peptide sequence yielded a binding curve of the peptides to its target substrate from which can be determined an EC50 (e.g., the concentration of peptide that gives 50% of the maximum signal in the binding curve is used as an estimate of the affinity of the peptide for the target). Preferred are peptides that bind to the selected target substrate (in this case, metal) with binding specificity, preferably with an EC50 of less than or equal to about 1 μM, and more preferably, in the nanomolar range (e.g., <0.1 μM). […] A typical binding assay for titanium (note, a different substrate may be substituted for titanium in the assay) may be perofrmed according to the following procedure.
(§2) Briefly, 5/32-inch diameter Grade 200 titanium beads were washed by sonication in acetone for 15 minutes, and the beads were allowed to dry. One bead was added to each well of a 96-well polypropylene plate. Two hundred fifty (250) μL of 1% BSA in PBS was added to each well of the plate. The surface of the wells was blocked by incubation for 1 hour at 20° C. with shaking at 500 rpm. The plate was washed three times with 250 μL of buffer-T per well. A 1:3 dilution series of each of the peptides was prepared using PBS as a diluent, starting at a peptide concentration of 20 μM, and going down to 0.0001 μM. A 200 μL sample of each dilution was added to wells of the plate. The plate was incubated for 1 hour at 20° C. with shaking at 500 rpm. The beads were washed three times with 250 μL of buffer-T per well. Two hundred (200) μL of streptavidin-alkaline phosphatase (“streptavidin AP”) reagent, at a dilution of 1:2000 in buffer+1% BSA, was added to each well. The plate was incubated for 30 minutes at room temperature. The beads were washed three times with 250 μL of buffer-T per well. Two hundred (200) μL of color development reagent (PNPP, p-nitrophenol phosphate) was added to each well. After color had developed (10 minutes), the samples were transferred to a clear 96-well plate and the absorbance at 405 nm determined. A binding curve was generated by plotting the absorbance at 405 nm against the peptide concentration (μM).

[2] = Peptide binding assay on stainless steel; conditions: for binding to stainless steel (in words): biotinylated peptides
Method: as §1, §2
(§3) In this embodiment, illustrated are additional characterizations of the binding specificities of examples of metal binding domains, and peptides containing the metal binding domains, according to the present invention to various substrates, such as metal (as illustrated by stainless steel, zirconium metal alloy […]) versus binding to a polymer (as illustrated by polystyrene). Using the methods illustrated in Example 2, binding specificities for the various substrates were determined; with the results illustrated in Table 6 (Note: “none” means any binding detected was very low, and not above background binding (such as by a control peptide with no binding specificity for metal) in the binding assay; and thus, a binding curve for calculation of an EC50 could not be generated).

[3] = Peptide binding assay on glass; conditions: Table 6
Method: as §1, §2, §3

[4] = Peptide binding assay on zirconium metal alloy; conditions: Table 6
Method: as §1, §2, §3

[5] = Peptide binding assay on polymer (polystyrene); conditions: Table 6, polymer illustrated by polystyrene
Method: as §1, §2, §3

[6] = Table 5, spacing between triplets, biotinylated peptides, binding to titanium, read-out: EC50
[7] = Table 3, substituted peptides labeled with biotin, binding to titanium, read-out: EC50
[8] = Table 6, read-out: EC50 (μM) stainless steel
[9] = Table 4, second-generation peptides, biotinylated at C-terminal lysine, binding to titanium, read-out: EC50

- EC50 [1, 6]: 75 nM
Substance: SKHKGGGKHKGSSGK [SEQ ID NO: 83]

- EC50 [1, 7]: > 100000 nM
Substance: SGGGPVTPRFFVVESK [SEQ ID NO: 64]

- EC50 [1, 7]: 800 nM
Substance: SHKHPVTPRFFVVNSK [SEQ ID NO: 69]

- EC50 [1, 7]: 3000 nM
Substance: SHKHGGGGRFFVVESK [SEQ ID NO: 61]

- EC50 [2, 8]: < 0.5 µM
- EC50 [3]: < 0.5 µM
- EC50 [4]: < 0.5 µM
- EC50 [5]: > 20 µM
- EC50 [1, 9]: 45 nM
Substance: SKHKGGHKHGSSGK [SEQ ID NO: 73]

- EC50 [2, 8]: < 0.05 µM
- EC50 [3]: < 0.05 µM
- EC50 [4]: < 0.05 µM
- EC50 [5]: > 20 µM
- EC50 [1, 9]: 25 nM
- EC50 ([1]; Table 7, peptide monomer versus branched polymers, binding to titanium, read-out: EC50): 25 nM
Substance: SKHKGGKHKGGKHKGSSGK [SEQ ID NO: 79]

- EC50 [2, 8]: < 0.5 µM
- EC50 [3]: < 0.5 µM
- EC50 [4]: < 0.1 µM
- EC50 [5]: > 20 µM
- EC50 [1, 9]: 60 nM
Substance: SHKHGGKHKGSSGK [SEQ ID NO: 74]

- EC50 [2, 8]: < 0.1 µM
- EC50 [3]: < 0.1 µM
- EC50 [4]: < 0.1 µM
- EC50 [5]: > 20 µM
- EC50 [1, 9]: 13 nM
Substance: SKKHGGKKHGSSGK [SEQ ID NO: 70]

- EC50 [1, 7]: 200 nM
Substance: SHKHPVTPRFFVVVSK [SEQ ID NO: 67]

- EC50 [2, 8]: < 0.5 µM
- EC50 [3]: < 0.1 µM
- EC50 [4]: < 0.1 µM
- EC50 [5]: > 20 µM
- EC50 [1, 9]: 110 nM
Substance: SKHKGGGGKHKGSSGK [SEQ ID NO: 75]

- EC50 [1, 9]: 500 nM
Substance: SHHKGGHHKGSSGK- (not fully specified; printed as SHHKGGHHKGSSGK-; also: name ends with '-': unspecified C-terminal conjugate) [SEQ ID NO: 78]

- EC50 [1, 7]: 2000 nM
Substance: SHKHPVTPRGGVVESK [SEQ ID NO: 60]

- binding to stainless steel (in words) [2]: showed binding
- binding to titanium (in words) ([1]; biotinylated peptides): showed binding
Substance: ssSDKCHKHWYCYESKYGGSsr ([code s][code s]SDKCHKHWYCYESKYGGS[code s][code r]; cysteine pairing not given here; also: biotinylated (site not given here)) [SEQ ID NO: 51]

- EC50 [1, 9]: 150 nM
Substance: SHKHGGGGHKHGSSGK [SEQ ID NO: 76]

- EC50 [2, 8]: < 0.5 µM
- EC50 [3]: < 0.5 µM
- EC50 [4]: < 0.1 µM
- EC50 [5]: > 20 µM
- EC50 [1, 9]: 26 nM
- EC50 [1, 6]: 26 nM
Substance: SKHKGGKHKGSSGK [SEQ ID NO: 71]

- EC50 [1, 7]: > 50000 nM
Substance: SHKHPVTPGFFVVESK [SEQ ID NO: 63]

- EC50 [1, 7]: 4000 nM
Substance: SHKHPVTPRFFVVESK [SEQ ID NO: 59, Parent]

- binding to stainless steel (in words) [2]: showed binding
- binding to titanium (in words) ([1]; biotinylated peptides): showed binding
Substance: ssCDQNDIFYTSKKSHKSHCsr ([code s][code s]CDQNDIFYTSKKSHKSHC[code s][code r]; not fully specified; printed as ssCDQNDIFYTSKKSHKSHCsr; cysteine pairing not given here) [SEQ ID NO: 49]

- binding to stainless steel (in words) [2]: showed binding
- binding to titanium (in words) ([1]; biotinylated peptides): showed binding
Substance: ssCSHNHHKLTAKHQVAHKCsr ([code s][code s]CSHNHHKLTAKHQVAHKC[code s][code r]; not fully specified; printed as ssCSHNHHKLTAKHQVAHKCsr; cysteine pairing not given here) [SEQ ID NO: 48]

- EC50 [1, 7]: 50 nM
Substance: SHKHPVTPRFFVVKSK [SEQ ID NO: 66]

- EC50 [2, 8]: < 1 µM
- EC50 [3]: < 1 µM
- EC50 [4]: < 1 µM
- EC50 [5]: > 20 µM
- EC50 [1, 9]: 200 nM
Substance: SHKHGGHKHGSSGK [SEQ ID NO: 77]

- EC50 [1, 7]: 600 nM
Substance: SHKHPVTPRFFVVGSK [SEQ ID NO: 68]

- EC50 [1, 9]: 4000 nM
- binding to titanium (in words) ([1]; biotinylated peptides): comparably poorer binding affinity
Substance: SHGHGGHGHGSSGK [SEQ ID NO: 80]

- EC50 [1, 7]: 50 nM
Substance: SHKHPVTPRFFVVYSK [SEQ ID NO: 65]

- EC50 [2, 8]: < 0.1 µM
- EC50 [3]: < 0.05 µM
- EC50 [4]: < 0.1 µM
- EC50 (μM) Polymer [5]: None
- EC50 [1, 9]: 35 nM
Substance: SHKHGGHKHGGHKHGSSGK [SEQ ID NO: 72]

- EC50 [1, 6]: 60 nM
Substance: SKHKGKHKGSSGK [SEQ ID NO: 82]

- EC50 [1, 7]: 3000 nM
Substance: SHKHPVTPRGGGGESK [SEQ ID NO: 62]

- EC50 [1, 6]: 60 nM
Substance: SKHKKHKGSSGK [SEQ ID NO: 81]

- EC50 [1, 6]: 70 nM
Substance: SKHKGGGGGKHKGSSGK [SEQ ID NO: 84]

- binding to stainless steel (in words) ([2]; listed as 47): showed binding
- binding to stainless steel (in words) ([2]; listed as SEQ ID NO:47): strongest binding
- EC50 ([2]; biotinylated phage-derived peptide, text of Example 2, read-out: EC50 on stainless steel): ~1 µM
- binding to titanium (in words) ([1]; biotinylated peptides, listed as 47): showed binding
- binding to titanium (in words) ([1]; biotinylated peptides, listed as SEQ ID NO:47): strongest binding
- EC50 ([1]; biotinylated phage-derived peptide, text of Example 2, read-out: EC50 on titanium): ~800 nM
Substance: ssCNCYVTPNLLKHKCYKICsr ([code s][code s]CNCYVTPNLLKHKCYKIC[code s][code r]; not fully specified; printed as ssCNCYVTPNLLKHKCYKICsr; cysteine pairing not given here) [SEQ ID NO: 47]

Reference: patent US20080015138A1, “Metal binding compounds, metal binding compositions, and their uses” (AFFINERGY, INC., priority 2006, published 2008)
